Source: EP4589010A1, “SCREENING METHOD FOR OFFENSIVE ODOR SUPPRESSING MATERIAL” (priority 2022, dated 2024)

Key:
[1] = test system: broadly tuned olfactory receptor OR2W1; details: cited from earlier work
[2] = test system: cells that do not express olfactory receptors; experiment: Luciferase assay, mock test; type: cell-based
Experimental: 0.05 µg of human olfactory receptor gene expression vector, 0.01 µg of RTP1S vector, and 0.01 µg of firefly luciferase vector pGloSensor™-22F cAMP Plasmid (Promega) containing CMV promoter were dissolved in 10 µL of Opti-MEM I (Gibco) to prepare a gene solution (per well). HEK293T cells were seeded at 100 µL per well in a 96-well plate (Biocoat, Corning) at a number of cells that reached subconfluence after 24 hours, and the gene solution was added to each well by lipofection according to the usage of Lipofectamine 3000 so that the cells were transfected with the gene and cultured at 37°C in a 5% carbon dioxide atmosphere for 24 hours. […] Then, 10 µL of 10 mM hexanal solution prepared in HEPES buffer supplemented with 300 µM CuCl2 and FBS was added to each well, and the changes in the response value of the luciferase activity over time were measured every minute immediately after the addition, thus obtaining the responses of approximately 400 human olfactory receptors to hexanal. The magnitude of the olfactory receptor response was expressed as a fold increase value obtained by dividing the maximum response value of luciferase activity that occurred after stimulation with hexanal by the luciferase activity before the stimulation with hexanal. […]

[3] = test system: olfactory receptor OR51E1; experiment: Luciferase (GloSensor cAMP) assay, response of olfactory receptor to hexanal; type: cell-based, human; details: HEK293T cells expressing OR51E1; various hexanal concentrations; Figure 6
Experimental: (§1) 0.05 µg of human olfactory receptor gene expression vector, 0.01 µg of RTP1S vector, and 0.01 µg of firefly luciferase vector pGloSensor™-22F cAMP Plasmid (Promega) containing CMV promoter were dissolved in 10 µL of Opti-MEM I (Gibco) to prepare a gene solution (per well). HEK293T cells were seeded at 100 µL per well in a 96-well plate (Biocoat, Corning) at a number of cells that reached subconfluence after 24 hours, and the gene solution was added to each well by lipofection according to the usage of Lipofectamine 3000 so that the cells were transfected with the gene and cultured at 37°C in a 5% carbon dioxide atmosphere for 24 hours. After removal of the culture solution, the cells were washed once with HEPES buffer, and 100 µL of GloSensor™ cAMP Reagent (Promega), adjusted to a predetermined concentration with HEPES buffer supplemented with FBS, was added to each well, and allowed to stand for 2 hours at room temperature. Then, 10 µL of 10 mM hexanal solution prepared in HEPES buffer supplemented with 300 µM CuCl2 and FBS was added to each well, and the changes in the response value of the luciferase activity over time were measured every minute immediately after the addition, thus obtaining the responses of approximately 400 human olfactory receptors to hexanal. The magnitude of the olfactory receptor response was expressed as a fold increase value obtained by dividing the maximum response value of luciferase activity that occurred after stimulation with hexanal by the luciferase activity before the stimulation with hexanal. Accordingly, OR2C1, OR2J2, OR2J3, OR5K1, OR5P3 and OR51E1 were identified as candidate olfactory receptors responsive to hexanal. After that, an aroma compound as a sample was prepared in HEPES buffer supplemented with 300 µM CuCl2 and FBS to a concentration 10 times the final concentration. 10 µL this aroma compound stimulation solution was added to each well, and the changes in the luciferase activity over time were measured every minute immediately after the addition to obtain the responses of approximately 400 human olfactory receptors to the aroma compound. The magnitude of the response of the olfactory receptor was expressed as a fold increase value determined by dividing the maximum luciferase activity value that occurred by the stimulation with the aroma compound by the luciferase activity before the stimulation with the aroma compound.
(§2) The responses of hexanal, which is an offensive odor-causing substance, to the olfactory receptors OR2C1, OR2J2, OR2J3, OR5K1, OR5P3 and OR51E1 were measured at various concentrations by the luciferase activity assay described above.

[4] = test system: olfactory receptor OR2C1; experiment: as above; type: cell-based, human; details: HEK293T cells expressing OR2C1; various hexanal concentrations; Figure 1
Experimental: as §1, §2

[5] = test system: olfactory receptor OR2J3; experiment: as above; type: cell-based, human; details: HEK293T cells expressing OR2J3; various hexanal concentrations; Figure 3
Experimental: as §1, §2

[6] = test system: olfactory receptor OR2J2; experiment: as above; type: cell-based, human; details: HEK293T cells expressing OR2J2; various hexanal concentrations; Figure 2
Experimental: as §1, §2

[7] = test system: olfactory receptor OR5K1; experiment: as above; type: cell-based, human; details: HEK293T cells expressing OR5K1; various hexanal concentrations; Figure 4
Experimental: as §1, §2

[8] = test system: olfactory receptor OR5P3; experiment: as above; type: cell-based, human; details: HEK293T cells expressing OR5P3; various hexanal concentrations; Figure 5
Experimental: as §1, §2

CC1=CCC2CC1C2(C)C (stereo not drawn) [alpha-pinene]
suppression of the OR2W1 response ([1]; masking agent against hexanal, Non-patent literature 6): suppress the OR2W1 response

CCCCCC=O [hexanal]
response to hexanal in the mock test [2]: no response was observed
response of olfactory receptor OR51E1 to hexanal (fold increase value) [3]: concentration-dependent responses
response of olfactory receptor OR2C1 to hexanal (fold increase value) [4]: concentration-dependent responses
response of olfactory receptor OR2J3 to hexanal (fold increase value) [5]: concentration-dependent responses
response of olfactory receptor OR2J2 to hexanal (fold increase value) [6]: concentration-dependent responses
response of olfactory receptor OR5K1 to hexanal (fold increase value) [7]: concentration-dependent responses
response of olfactory receptor OR5P3 to hexanal (fold increase value) [8]: concentration-dependent responses
hexanal response of OR2W1 ([1]; in vitro tests, prior art): concentration-dependent hexanal response
